Reference: publication PMC3724358 (The journal of physical chemistry. B, 2011)
Positions count from the first letter of the chain named.

Assays:
[1] = molecular target: T1, Ht cyt c552 (Hydrogenobacter thermophilus cytochrome c552) (Hydrogenobacter thermophilus, UniProt P15452, M77A); experiment: protein film voltammetry titration, pyrolytic graphite edge electrode; assay type: binding
T1 sequence (P15452 19-98 M77A): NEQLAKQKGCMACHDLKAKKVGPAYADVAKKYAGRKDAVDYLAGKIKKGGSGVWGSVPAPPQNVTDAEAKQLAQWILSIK

[2] = molecular target: T2, Ht cyt c552 (Hydrogenobacter thermophilus cytochrome c552) (Hydrogenobacter thermophilus, UniProt P15452); experiment: as above; assay type: binding
T2 sequence (P15452 19-98): T1 sequence (P15452 19-98 M77A) with A59M

c1c[nH]cn1 [Im, imidazole]
Kd [1]: 756 µM
Kd [2]: 2400 µM
